{"source": "patent US10525026B2", "about": "“Intravenous administration of citrulline during surgery” (Vanderbilt University, priority 2015, dated 2020)", "key": {"[1]": {"assay": "Phase IB single-blind, randomized, placebo controlled PK and safety study of IV L-citrulline in children and infants undergoing CPB", "assay_type": "in vivo", "procedure": "A multicenter, Phase IB single-blind, randomized, placebo controlled study was conducted to determine the pharmacokinetics (PK) and safety of IV L-citrulline administration to children and infants undergoing cardiopulmonary bypass (CPB) for surgical repair of congenital heart defects.\nThe primary objective of the study was to determine if a revised protocol of intravenous (IV) L-citrulline delivery given peri-operatively achieved a plasma citrulline level of >100 μmol/L in the group given citrulline and to compare that to citrulline levels in the placebo group, during follow-up in children undergoing surgical repair of an atrial septal defect (ASD) and/or a ventricular septal defect (VSD) or a partial or complete atrioventricular septal defect (AVSD).\nTwenty two (22) patients were enrolled and treated. The patients received study drug or placebo infusion according to a fixed dosing protocol starting at the initiation of CPB until 48 hours postoperatively or until removal of the arterial line. Study participation ended at discharge or at Day 28 whichever came first. The dosing regimen was designed to maintain plasma citrulline levels in the face of extended hemofiltration.\nPlasma citrulline concentration levels were the primary PK variable; these were assessed in blood samples collected at 7 perioperative time points. Secondary PK variables were concentrations of arginine and nitric oxide (NO) metabolites in the same sample set. PK values were compared between groups.\nSubjects received an IV citrulline bolus of 150 mg/kg or placebo at the initiation of CPB, followed by the addition of L-citrulline at a concentration of 200 μmol/L or placebo to the filtration or hemoconcentration replacement fluid used during CPB. A citrulline bolus of 20 mg/kg was administered 30 minutes after decannulation from CPB, immediately followed by a 9-mg/kg/hr continuous infusion of citrulline or placebo for 48 hours.\nPrimary safety assessments included hemodynamic monitoring to identify clinically significant hypotension using age-specific limits. Adverse event information was collected, and postoperative bleeding was recorded.\nFurther safety, laboratory, and clinical assessments were performed from baseline to discharge, secondary clinical variables included: postoperative mechanical ventilation, duration of total respiratory support, hemodynamic improvement, postoperative PVT by echocardiogram, serum creatinine and liver enzymes, inotrope score, duration of chest tube usage, length of intensive care unit stay, length of hospitalization and survival.\nThe duration of postoperative invasive mechanical ventilation was derived as the time in hours from separation from cardiopulmonary bypass until endotracheal extubation. If a patient required reintubation within 24 hours after extubation, the reintubation time was added in the main analysis. In a second analysis, the reintubation time was not included."}, "[2]": {"assay": "Safety and pharmacokinetics of intravenous citrulline, open label dose escalation in children undergoing repair of congenital heart defects", "assay_type": "in vivo", "details": "for concentration at 4 h: read-out: 4 hour trough citrulline level", "procedure": "The initial goal was to test the safety and pharmacokinetics of three doses of intravenous citrulline in children undergoing surgical repair of specific congenital heart defects. […] An adverse drop in mean arterial pressure was defined as a greater than a twenty percent decrease from baseline. The baseline postoperative mean arterial blood pressure was calculated as the average of mean arterial blood pressure measurements collected every 5 minutes for the 30 minutes immediately preceding the administration of the postoperative dose or infusion.\nThe original doses selected were 200, 400, and 600 mg/kg based on data from previous animal studies. The original study design was a 4 arm study using the 3 doses and a placebo control.\nAfter pharmacokinetic modeling, the study design was changed to a bolus dose of 150 mg/kg given in the OR on cardiopulmonary bypass followed 4 hours later by a continuous infusion of 9 mg/kg/hour for 48 hours. Another 9 patients were enrolled. The mean plasma levels of both citrulline and arginine in study patients (+IV citrulline) compared to patients in the observational cohort (−IV citrulline) are depicted in FIGS. 11A-B."}, "[3]": {"assay": "Intravenous citrulline in piglets: safety and effect on serum arginine levels", "assay_type": "in vivo, Duroc swine", "details": "600 mg/kg IV", "procedure": "The objective was to assess the safety of intravenous citrulline and its effect on serum arginine levels in piglets. A total of 9 Duroc swine, aged 5-21 days, with a target minimum weight of 4 kg were utilized. All piglets underwent anesthetic induction and tracheostomy. Central lines were placed in the femoral artery and femoral vein and hemodynamics monitored continuously. Citrulline (600 mg/kg IV) was administered to 5 piglets. Saline was given to control animals. Serum amino acids were drawn before and each hour after citrulline administration."}, "[4]": {"assay": "Revised dosing protocol for cardiac surgery, 22 patients randomized to placebo and citrulline", "assay_type": "in vivo, children", "source_text": "The study in this example was undertaken to test a revised dosing protocol designed to achieve and maintain therapeutic citrulline levels in the face of ultrafiltration and crystalloid replacement. […] The study recruited 22 patients randomized in equal numbers of 11 patients each to placebo and citrulline arms. Early in the course of the study, it was recognized that one of the two participating centers routinely extubated all patients in the operating room immediately following cessation of cardiopulmonary bypass. This precluded use of the duration of mechanical ventilation as an endpoint. Instead, a post-hoc analysis was applied using the duration of all forms of ventilatory support as a possible endpoint. […] In contrast, contingency table analysis, shown in Table 5, did achieve borderline significance. Overall, the results are considered to represent a strong trend."}, "[5]": {"assay": "Perioperative intravenous L-citrulline pharmacokinetics, single bolus dose escalation in children undergoing congenital cardiac surgery", "assay_type": "in vivo", "procedure": "To determine clearance of a single bolus dose of IV citrulline and optimal dose frequency, a dose escalation design using three concentrations of IV citrulline: 50, 100, & 150 mg/kg was utilized. The dose of citrulline was given in the operating room immediately after cannulation and initiation of cardiopulmonary bypass. The overall goal was to achieve a sustained citrulline level of 100 μmol/L or more up to four hours after the initial dose. The four hour time point was selected to allow for the surgical procedure to be completed and the patient to return to the ICU postoperatively before further dosing.\nPatients were then enrolled using this revised protocol of a combination of a bolus dose of 150 mg/kg in the OR on CPB and a continuous infusion of 9 mg/kg/hr started postop in the PICU at 4 hours after the initial bolus dose."}, "[6]": {"assay": "Randomized, placebo controlled, double blind intravenous citrulline study (77 patients)", "assay_type": "in vivo, children", "details": "bolus plus infusion protocol, hemofiltration during CPB", "source_text": "An intravenous citrulline study conducted was a randomized, placebo controlled, double blind study with the primary clinical outcome being length of mechanical ventilation postoperatively and secondarily the incidence of postoperative pulmonary hypertension between the 2 treatment groups (citrulline vs placebo).\nA total of 77 patients were enrolled at Vanderbilt Children's Hospital. Patients were screened based on the surgical schedule. Based on this schedule, patients undergoing one of the 5 planned cardiac surgeries included in this study were screened (patients undergoing the Norwood procedure are now excluded at the recommendation of the DSMB).\nThe study was stopped in preparation for a larger multicenter randomized placebo controlled trial. […] These hemofiltration techniques had changed during the study, and the investigators were not aware of these changes."}, "[7]": {"assay": "Perioperative oral citrulline supplementation in children undergoing congenital cardiac surgery", "assay_type": "in vivo", "procedure": "40 patients with one of the 5 surgical diagnoses identified above were randomized to receive 5 doses of oral citrulline (1.9 grams/kg) vs. placebo. The first dose was administered immediately prior to surgery and the second dose immediately on arrival in the Pediatric ICU after surgery followed every 12 hours×3 doses."}, "[8]": {"details": "bolus 150 mg/kg at beginning of surgery, 4 hours later continuous infusion 9 mg/kg/hr"}, "[9]": {"details": "original doses 200, 400, and 600 mg/kg intravenous, five patients"}, "[10]": {"details": "revised dosing protocol, contingency table, 11 patients per arm"}}, "data": [{"smiles": "NC(=O)NCCCC(N)C(=O)O", "note": "(stereo not drawn) [citrulline, 2-amino-5-(carbamoylamino)pentanoic acid]", "values": [{"measurement": "Plasma citrulline levels", "setting": "[1]; bolus 150 mg/kg, 200 μmol/L in filtration fluid, bolus 20 mg/kg, infusion 9 mg/kg/hr for 48 hours", "result": "> 100", "unit": "µmol/L"}, {"measurement": "Sustained plasma citrulline levels", "setting": "[1]; bolus 150 mg/kg, 200 μmol/L in priming and hemofiltration fluid, bolus 20 mg/kg, infusion 9 mg/kg/hr for 48 hours", "result": "around 100 μmol/L"}, {"measurement": "Duration of invasive mechanical ventilation, Kaplan-Meier analysis versus placebo", "setting": "[1]; excluding re-intubation, Wilcoxon p=0.0222, ANOVA t-test p=0.0317", "result": "reduced duration of mechanical ventilation"}, {"measurement": "Mean duration of invasive mechanical ventilation", "setting": "[1]; including the reintubation time, placebo 37 hours", "result": 5, "unit": "h"}, {"measurement": "Composite durations of mechanical ventilation and inotrope therapy versus placebo", "setting": "[1]; longer of the two durations, surrogate for ICU stay", "result": "shorter composite durations of mechanical ventilation and inotrope therapy"}, {"measurement": "Patients extubated in the operating room", "setting": "[1]; one site, 6 patients per group, placebo 33%", "result": 100, "unit": "%"}, {"measurement": "Adverse side effects", "setting": "[2]; 50 mg/kg intravenous", "result": "No adverse side effects were noted"}, {"measurement": "Peak citrulline level", "setting": "[2]; 50 mg/kg intravenous, patients 6 and 8", "result": "approximately 220 μmol/L"}, {"measurement": "Adverse side effects", "setting": "[2]; 100 mg/kg intravenous", "result": "no adverse side effects were noted"}, {"measurement": "Peak citrulline level", "setting": "[2]; 100 mg/kg intravenous, patients 9 & 10", "result": 375, "unit": "µmol/L"}, {"measurement": "Peak citrulline level", "setting": "[2]; 150 mg/kg intravenous, patients 13-16", "result": 660, "unit": "µmol/L"}, {"measurement": "Adverse side effects", "setting": "[2]; [8]", "result": "No adverse side effects were noted"}, {"measurement": "Sustained plasma citrulline levels", "setting": "[2]; [8]", "result": "around 100 μmol/L"}, {"measurement": "Significant adverse events", "setting": "[2]; bolus 150 mg/kg on CPB, 4 hours later infusion 9 mg/kg/hour for 48 hours", "result": "one significant adverse event but it was not related to the use of IV citrulline"}, {"measurement": "concentration at 4 h", "setting": "[2]; human, plasma, 50 mg/kg intravenous, patients 6 and 8", "result": 40, "unit": "µM"}, {"measurement": "concentration at 4 h", "setting": "[2]; human, plasma, 100 mg/kg intravenous, patients 9 & 10", "result": 50, "unit": "µM"}, {"measurement": "concentration at 4 h", "setting": "[2]; human, plasma, 150 mg/kg intravenous, patients 13-16", "result": 80, "unit": "µM"}, {"measurement": "half-life", "setting": "[2]; human, plasma, intravenous bolus 50, 100, 150 mg/kg", "result": "~1.42", "unit": "h"}, {"measurement": "Adverse effects", "setting": "[2]; [9]", "result": "no adverse effects were noted"}, {"measurement": "Plasma levels achieved", "setting": "[2]; [9]", "result": "very high"}, {"measurement": "Hemodynamic instability", "setting": "[3]", "result": "No hemodynamic instability was observed"}, {"measurement": "Time of peak serum arginine levels following intravenous citrulline administration", "setting": "[3]", "result": "1 to 2", "unit": "h"}, {"measurement": "Arginine Levels Following intravenous citrulline", "setting": "[3]; 1 hour post", "result": 535.0, "unit": "µmol/L"}, {"measurement": "Mean Arterial Blood Pressures Following intravenous Citrulline", "setting": "[3]; 1 hour post", "result": 67.4, "unit": "mmHg"}, {"measurement": "Arginine Levels Following intravenous citrulline", "setting": "[3]; 2 hours post", "result": 559.8, "unit": "µmol/L"}, {"measurement": "Mean Arterial Blood Pressures Following intravenous Citrulline", "setting": "[3]; 2 hours post", "result": 64.8, "unit": "mmHg"}, {"measurement": "Arginine Levels Following intravenous citrulline", "setting": "[3]; 3 hours post", "result": 498.4, "unit": "µmol/L"}, {"measurement": "Mean Arterial Blood Pressures Following intravenous Citrulline", "setting": "[3]; 3 hours post", "result": 62.2, "unit": "mmHg"}, {"measurement": "Arginine Levels Following intravenous citrulline", "setting": "[3]; Baseline", "result": 131.5, "unit": "µmol/L"}, {"measurement": "Mean Arterial Blood Pressures Following intravenous Citrulline", "setting": "[3]; Pre-dose", "result": 67.0, "unit": "mmHg"}, {"measurement": "Systolic and diastolic blood pressure versus placebo", "setting": "[4]; FIG. 18A", "result": "No significant change in systolic and diastolic blood pressure"}, {"measurement": "Mean arterial pressure versus placebo", "setting": "[4]; FIG. 18B", "result": "No significant change in the mean arterial pressure"}, {"measurement": "Inotrope scores versus placebo", "setting": "[4]; particularly from 15 to 18 hours onward following ICU admission", "result": "markedly better inotrope scores"}, {"measurement": "Adverse effects upon hemodynamic parameters", "setting": "[4]; revised dosing protocol", "result": "No adverse effects upon hemodynamic parameters were observed"}, {"measurement": "Number of patients with Duration of Respiratory Support >50 hours", "setting": "[4]; [10]", "result": 2}, {"measurement": "Number of patients with Duration of Respiratory Support ≤50 hours", "setting": "[4]; [10]", "result": 7}, {"measurement": "Adverse effects including hypotension", "setting": "[5]; IV bolus 50, 100, 150 mg/kg", "result": "no adverse effects including hypotension"}, {"measurement": "½ life of the bolus doses", "setting": "[5]; IV bolus 50, 100, 150 mg/kg", "result": "60 to 90", "unit": "min"}, {"measurement": "concentration at 4 h", "setting": "[5]; human, plasma, 150 mg/kg IV bolus after initiation of CPB, read-out: Four hour citrulline levels", "result": "~100", "unit": "µM"}, {"measurement": "Reaching the sustained target plasma citrulline level of 100 μmol/L", "setting": "[6]", "result": "a majority who received citrulline did not reach the therapeutic sustained target plasma citrulline level"}, {"measurement": "Tolerability / adverse events of oral citrulline", "setting": "[7]; 1.9 g/kg before CPB, postoperatively and every 12 hours for 48 hours", "result": "well tolerated with no evidence of significant adverse events"}, {"measurement": "Plasma citrulline levels", "setting": "[7]; 5 doses of 1.9 grams/kg, vs. placebo 26, p=0.013", "result": 36, "unit": "µmol/L"}]}]}
